Results taken from patent publication US12377069B2, “Compounds, compositions, methods of using, and methods for preparing compounds” (UNIVERSITY OF LOUISVILLE RESEARCH FOUNDATION, INC., priority 2018, dated 2025).

Tests used:
[1] = test system: colon cancer cell line (SW480); assay: Proliferation assay with 5FU; details: Homo sapiens
Cyp1A1 [2] = assay: Cyp1A1 enzyme activity in colon and liver microsomes of treated mice; assay type: in vivo, mouse; details: 1 week; for Cyp1A1 activity in liver compared to oral UroA/UAS03: i.p. daily
Protocol: Measurements of Cyp1A1 enzyme activity (Ex vivo): Mice were treated with Vehicle or UroA or UAS03, BNF or FICZ daily for one week at indicated concentration either through oral or i.p. route. After one week, mice were euthanized and the colon and liver tissues were dissected. Microsomes from these tissues were prepared using the following procedure (SINGH et al., (2013) “Evaluation of memory enhancing clinically available standardized extract of Bacopa monniera on P-glycoprotein and cytochrome P450 3A in Sprague-Dawley rats” PloS one, Vol. 8, Article e72517). For hepatic microsomes, liver was first perfused with 0.9% sodium chloride solution and excised out. Adhering blood and saline was removed by blotting on tissue paper and tissue was homogenized in tissue homogenization buffer (50 mM Tris-HCl, pH 7.4 with 250 mM sucrose). Homogenate was centrifuged at 10,000×g for 30 minutes at 4° C. supernatant obtained was further centrifuged at 105,000×g for 60 minutes at 4° C. The pellet was washed with homogenization buffer and centrifuged again at 105,000×g for 60 minutes at 4° C. The pellet was suspended in homogenization buffer and used for protein and CYP assay. For intestinal microsome preparation, intestine was removed and washed with 0.9% sodium chloride. The intestine was longitudinally cut open to expose mucosal layer and mucosa was scrapped with help of glass slide. The scraped tissue was collected in homogenization buffer (50 mM Tris-HCl buffer containing glycerol (20% v/v), protease inhibitor (1%) and heparin (3 U/ml)). This suspended mucosa was homogenized and centrifuged at 10,000×g for 20 minutes at 4° C. Supernatant obtained was further centrifuged at 105,000×g for 60 minutes at 4° C. The pellet was washed with buffer and centrifuged again at 105,000×g for 60 minutes at 4° C. The pellet was suspended homogenization buffer and used for protein and CYP enzymes assays.
Ethoxyresorufin-O-deethylase (EROD) assay: The microsomal proteins (0.5 mg) were mixed with 200 μL Tris buffer (0.1 M, pH 7.4) containing ethoxyresorufin (0.01 mM). To start reaction, NADPH (0.1 mM) was added and incubated at 37° C. for 10 min. After 10 min, reaction was terminated by adding equal volume of acetonitrile and reaction mixture was centrifuged at 13000×g for 10 min at 4° C. Supernatant was used to determine resorufin by measuring fluorescence (Ex. 530 nm, Em. 580 nm). Pure resorufin (Sigma Aldrich) was used to generate standard curve.
P450-Glo Cyp1A1 luminiscence assay: The above microsomes (20 μg) were used for P450-Glo Cyp1A1 luminiscence assays as per manufacturer's instructions.

Cyp1A1 [3] = assay: Cyp1A1 expression and enzyme activity in vitro (P450-Glo, EROD); assay type: cell-based, human; details: HT29, 24 h; P450-Glo and EROD
Protocol: Measurment of Cyp1A1 enzyme activities in vitro. EROD assay: HT-29 cells (15,000 cells/well) treated with vehicle, UroA and UAS03 (24 hrs), were rinsed with HBSS buffer, and then fresh HBSS buffer was added along with 5 μM of 7-ethoxyresorufin. Cells were further incubated at 37° C. for 1 h. After the incubation time, fluorescence (Exc. 530 nm, Em. 580 nm) was measured and product (resorufin) formed was calculated from calibration standard and normalized with protein concentration.
P450-Glo Cyp1A1 luminiscence assay: HT29 cells (25,000 cells/well) were plated in 48 well plate. Cell were then treated with UroA (0.1, 1, 10, 25 and 50 μM) or UAS03 (0.1, 1, 10, 25 and 50 μM) or FICZ (0.1, 1, 10, 25 and 50 nM) for 24 hrs. After treatment, cells were washed to remove any residual drugs, and fresh medium containing Cyp1A1 substrate (as per protocol provided with kit Cat. #V8751; Promega) for 3 hr. After incubation, 25 μl of culture medium was removed from each well and transferred to a 96-well white opaque plate and 25 μl of luciferin detection reagent was added to initiate the luminescence reaction and plate was incubated at room temperature for 20 min. After incubation, luminescence was recorded in luminometer. The data reported as fold change over vehicle treatment.

[4] = test system: mouse bone marrow derived macrophages (BMDMs); assay: LPS-induced IL-6 and TNF-α in BMDM; assay type: cell-based; details: LPS 50 ng/mL, six hours; compared UroA
Protocol: Measurements of IL-6 and TNF-α in BMDM: BMDM were plated in 96 (10,000 cells/well) and 12 wells (0.1×10^6 cells/well) plate for ELISA and RNA isolation. To evaluate the anti-inflammatory properties, BMDMs were stimulated with E. coli-derived lipopolysaccharides (LPS; 055:B5; Sigma) at 50 ng/mL concentration for six hours alone or in combination with UroA or UAS03 at indicated concentrations (0.01, 0.1, 1, 10, 25, 50 μM) in quadruplicates. For cytokine production via ELISA, the supernatant was collected and centrifuged at 10,000×g for 10 min at 4° C. to pellet down any cell and cytokines were quantified using IL-6 and TNF-α specific ELISA kit (Biolegend) following manufacturer's instruction.
Screening for anti-inflammatory activities: Mouse bone marrow derived macrophages (BMDM) were plated in 96 wells plate for ELISA. To evaluate the anti-inflammatory properties, BMDMs were stimulated with E. coli-derived lipopolysaccharides (LPS; 055:B5; Sigma) at 50 ng/mL concentration for six hours alone or in combination with compounds at indicated concentrations in quadruplicates. For cytokine production via ELISA, the supernatant was collected and centrifuged at 12,000 rpm for 10 min at 4° C. to pellet down any cell and cytokines were quantified using IL-6 and TNF-α specific ELISA kit (Biolegend) following manufacturer's instruction. LPS induced IL-6 or TNF-α considered as 100%.

AhR = AhR reporter (XRE-luciferase) assay; assay type: cell-based, human; details: 6 h, over vehicle
Protocol: AhR Reporter assay: AhR-reported assay was performed using AhR Reporter Assay system (Indio Biosciences). The AhR Reporter cells (expressing luciferase under AhR promoter) as well as positive control MeBio (AhR ligand) compound were provided in the kit. The cells were treated with Vehicle or UroA or UAS03 or ellagic acid or MeBio for 6 hr and luminoscence was measured according to manufacture's instructions.

[5] = SW480, read-out: cell viability
[6] = i.p., UroA/UAS03 5 mg/kg/day, FICZ 1 μg/mouse/day

O=c1[nH]cc(F)c(=O)[nH]1 [5FU, 5-Fluoro-1H,3H-pyrimidine-2,4-dione, reference compound]
viability at 3.12 µM [1, 5]: 90%
viability at 25 µM [1, 5]: 63%
inhibition at 100 µM ([1]; SW480, read-out: maximum inhibition of cancer cell growth): ≤ 60%

O=c1cc(-c2ccccc2)oc2ccc3ccccc3c12 [BNF, beta-naphthoflavone, reference compound]
Cyp1A1 activity in liver compared to oral UroA/UAS03 (Cyp1A1 [2]): more Cyp1A1 activity in liver

O=Cc1c2c(cc3c1=Nc1ccccc1-3)=Nc1ccccc1-2 [FICZ, 6-Formylindolo[3,2-b]carbazole, reference compound]
Cyp1A1 enzyme activity in colon epithelial cells (Cyp1A1 [3]): increased Cyp1A1 activity even at nano molar concentrations
Cyp1A1 activity in liver compared to oral UroA/UAS03 (Cyp1A1 [2]): more Cyp1A1 activity in liver
Cyp1A1 activity increase in colons (Cyp1A1 [2]; [6]): ~5 fold
Cyp1A1 enzyme activity induction in liver (Cyp1A1 [2]; [6]): ~30 fold

O=C1C(=O)c2cc(O)ccc2-c2ccc(O)cc21 [PKL4]
anti-inflammatory activities (LPS-induced IL-6 and TNF-α), analogue screening [4]: effective anti-inflammatory compounds

COc1ccc2c(c1)C(=O)C(=O)c1cc(OC)ccc1-2 [PKL 3]
anti-inflammatory activities (LPS-induced IL-6 and TNF-α), analogue screening [4]: effective anti-inflammatory compounds

O=C1/C(=N/C23CC4CC(CC(C4)C2)C3)c2cc(O)ccc2-c2ccc(O)cc21 [PKL 17]
anti-inflammatory activities (LPS-induced IL-6 and TNF-α), analogue screening [4]: effective anti-inflammatory compounds

Clc1cc2c(cc1Cl)Oc1cc(Cl)c(Cl)cc1O2 [TCDD, 2,3,7,8-tetrachlorodibenzo-p-dioxin, reference compound]
Cyp1A1 enzyme activity in colon epithelial cells (Cyp1A1 [3]): increased Cyp1A1 activity even at nano molar concentrations

MeBio
induction of luciferase activity (AhR activation) (AhR): ~15 fold
